The values that follow are results of earlier work, collected in US7575768B2, “Dietary supplements and prepared foods containing triglyceride-recrystallized non-esterified phytosterols” (Brandeis University, priority 2005, dated 2009).

In the series the test system is humans.

As for `CC[C@H](CC[C@@H](C)[C@H]1CC[C@H]2[C@@H]3CC=C4C[C@@H](O)CC[C@]4(C)[C@H]3CC[C@]12C)C(C)C` [beta sitosterol], for the setting “12-18 g per day in divided doses, males with atherosclerosis”, the “lowering of serum cholesterol” value is 15-20%.

As for `CC[C@H](CC[C@@H](C)[C@H]1CC[C@H]2[C@@H]3CC=C4C[C@@H](O)CC[C@]4(C)[C@H]3CC[C@]12C)C(C)C` [sitosterol], where the note is “9-18 grams per day, coarse powdered form”, the “decrease of plasma cholesterol level” value is given as “approximately 15%”.
